One block for each compound: values may come before it.
How the values were obtained:
[1] = target: T1, RelBs^NTD2:DarB2 complex (DarB:RelBs^NTD) (Bacillus subtilis, UniProt O54408); test: stopped-flow FRET, Kd = koff/kon; format: binding; conditions: read-out: Kd^MANT-ATP
T1 construct: gene relA; heterotetramer of Rel residues 1 to 373 with full-length DarB, His10-SUMO tags cleaved, complex purified by size exclusion chromatography; with CBS domain-containing protein YkuL

[2] = target: T1, RelBs^NTD2:DarB2 complex (DarB:RelBs^NTD); test: isothermal titration calorimetry; format: binding
[3] = target: T2, RelBs^NTD (Bacillus subtilis, UniProt O54408); test: isothermal titration calorimetry; format: binding; conditions: 25°C; pH 7.5; 10 mM MgCl2
T2 construct: gene relA; N-terminal domain region, residues 1 to 373 (HD, SYNTH and core domains), His10-SUMO tag cleaved with Ulp1, from E. coli BL21(DE3)
T2 sequence (O54408 1-373): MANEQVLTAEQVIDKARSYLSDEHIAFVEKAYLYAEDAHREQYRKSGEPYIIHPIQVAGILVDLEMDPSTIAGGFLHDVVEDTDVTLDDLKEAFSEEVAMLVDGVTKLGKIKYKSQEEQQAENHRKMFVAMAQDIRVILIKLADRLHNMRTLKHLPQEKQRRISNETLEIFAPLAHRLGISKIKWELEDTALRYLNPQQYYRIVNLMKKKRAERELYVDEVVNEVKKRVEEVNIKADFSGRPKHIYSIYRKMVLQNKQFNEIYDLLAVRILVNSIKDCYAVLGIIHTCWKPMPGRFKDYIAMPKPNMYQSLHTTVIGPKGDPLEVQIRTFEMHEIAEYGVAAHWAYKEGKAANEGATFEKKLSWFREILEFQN

[4] = target: DarB (Bacillus subtilis, UniProt O31698); test: biochemical
Chain of DarB (O31698 whole entry): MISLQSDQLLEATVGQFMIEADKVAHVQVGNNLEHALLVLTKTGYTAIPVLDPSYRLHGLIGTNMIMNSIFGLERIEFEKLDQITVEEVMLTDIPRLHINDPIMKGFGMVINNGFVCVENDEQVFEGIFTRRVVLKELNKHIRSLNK

T1 sequence (O54408 1-373): as the sequence (O54408 1-373) above
T1 sequence (O31698 whole entry, further chain, the tested form may be a part): as the sequence (O31698 whole entry) above

- Kd [1]: 308 µM
Compound: CNc1ccccc1C(=O)O[C@H]1[C@@H](O)[C@H](n2cnc3c(N)ncnc32)O[C@@H]1CO[P@@](=O)(O)O[P@](=O)(O)OP(=O)(O)O (mixture of isomers) [MANT-ATP]

Compound: Nc1ncnc2c1ncn2[C@@H]1O[C@H](COP(=O)(O)CP(=O)(O)OP(=O)(O)O)[C@@H](O)[C@H]1O [APCPP, adenosine-5′-[(α,β)-methyleno]triphosphate]
- Kd ([2]; read-out: Kd^APCPP): 115 µM
- isothermal titration calorimetry [3]: RelBs^NTD alone has low affinity to APCPP (Fig. 5G)

- Kd [4]: 0.0457 µM
Compound: Nc1ncnc2c1ncn2[C@@H]1O[C@@H]2COP(=O)(O)O[C@H]3[C@@H](O)[C@H](n4cnc5c(N)ncnc54)O[C@@H]3COP(=O)(O)O[C@H]2[C@H]1O [c-di-AMP]

- Kd ([2]; read-out: Kd): 8.2 µM
Compound: Nc1nc2c(ncn2[C@@H]2O[C@H](COP(=O)(O)OP(=O)(O)OP(=O)(O)O)[C@@H](OP(=O)(O)OP(=O)(O)O)[C@H]2O)c(=O)[nH]1 [pppGpp]
